The results in this text go back to paper PMC7898822, “RNA‐PROTACs: Degraders of RNA‐Binding Proteins” (Angewandte Chemie (International Ed. in English), 2020).

Data set [1] has as its target T1, Lin28_ZKD (Homo sapiens, UniProt Q9H9Z2).
T1 construct: construct encoding amino acids 124–186 of human Lin28; His6; made in house; host or cells: Escherichia coli BL21 (DE3) Codon+ (RIL)
T1 sequence (Q9H9Z2 124-186): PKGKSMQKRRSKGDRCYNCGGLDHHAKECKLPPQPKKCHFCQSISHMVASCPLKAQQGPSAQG
As to the kind of experiment: Fluorescence polarization competition assay (displacement of let7FAM from Lin28_ZKD). In kind it is binding. On the procedure: Fluorescence Polarization Assay. Fluorescence polarization titration assay was carried out by titrating Lin28_ZKD protein into FAM-labeled PreE-let-7 at a 10 nM final concentration and buffer (10 mM HEPES, 150 mM NaCl, 10 µM ZiCl2, pH 7,4). The assay plate was briefly vortexed, and air bubbles were removed by spinning at 1000 rpm. The fluorescence anisotropy was measured on a Spectra Max Paradigm multimode plate reader (Molecular Devices). The fluorescence polarization competition […]
preE-let-7. The concentration of Lin28_ ZKD is kept at 40 nM, a value in the range of the dissociation constant of Lin28_ZKD and preE-let-7 determined through fluorescence polarization titration assay, whereas preE-let-7 concentration is kept constant at 10 nM. FP competitive binding assays were performed on 384-well plates (#3575, Corning) with a total well volume of 10 µL.
Fluorescence polarization readings were transferred into Prism 7.0 (GraphPad). All fluorescence polarization assays were repeated at least three times and the anisotropy values fitted using GraphPad Prism software using 1:1 binding/inhibition model. […]

The test system of a further data set is Lin28A. As to the kind of experiment: Western blot of Lin28A in K562 cells. As to conditions: K562 cells, 48 h, western blot; three independent experiments. In kind it is cell-based, human. From the text:
Finally, we tested RNA‐PROTACs for their ability to degrade their target in two cell lines: the embryonic NT2/D1 cell line, which expresses high levels of Lin28A, ^[13a] and K562 cells which express Lin28A and Lin28B. […] Finally, we co‐treated K562 cells with ORN3P1 and MG132, a reversible inhibitor of the 26S proteasome. […] In order to explore the versatility of RNA‐PROTACs with non peptide‐based VHL ligands, we conjugated small‐molecule VH032 ^[38] to ORN3 via an amino linker to yield ORN3VH032 (Figure S1). […]

The target in data set [2] is T1, Lin28_ZKD. As to the kind of experiment: NMR 1H-15N HSQC titration of Lin28_ZKD. As to conditions: 10 mM HEPES pH 7.0, 303K. The format is binding.
From the text: The oligonucleotide element of an RNA‐PROTAC binds its target RBP via interactions at the riboses and the backbone, as well as the nucleobases. […] Thus, we used the same method to examine how various ribose modifications of L28RBE (Table 1, Figure S1) might affect binding of an RNA‐PROTAC to Lin28_ZKD.
In a further data set the test system is K562 cells. Description: Intracellular uptake of FAM-labelled oligonucleotides, fluorescence microscopy. In kind it is cell-based, human. To be noted: FAM-conjugated, 1 µM, 24 h.

Like-named read-outs stand apart in the source and are kept apart here.

As to `CC[C@H](C)[C@H](NC(=O)[C@H](Cc1ccc(O)cc1)NC(=O)[C@@H]1C[C@@H](O)CN1C(=O)[C@H](C)NC(=O)[C@H](CC(C)C)NC(=O)CCCCCNC(=O)[C@@H](N)CSC1CC(=O)N(CCOP(=O)(S)OC[C@H]2O[C@@H](n3cnc4c(N)ncnc43)[C@H](OC)[C@@H]2OP(=O)(S)OC[C@H]2O[C@@H](n3cnc4c(=O)[nH]c(N)nc43)[C@H](OC)[C@@H]2OP(=O)(S)OC[C@H]2O[C@@H](n3cnc4c(=O)[nH]c(N)nc43)[C@H](OC)[C@@H]2OP(=O)(S)OC[C@H]2O[C@@H](n3cnc4c(N)ncnc43)[C@H](OC)[C@@H]2OP(=O)(S)OC[C@H]2O[C@@H](n3cnc4c(=O)[nH]c(N)nc43)[C@H](OC)[C@@H]2OP(=O)(S)OC[C@H]2O[C@@H](n3cnc4c(N)ncnc43)[C@H](OC)[C@@H]2OP(=O)(S)OC[C@H]2O[C@@H](n3ccc(=O)[nH]c3=O)[C@H](OC)[C@@H]2O)C1=O)C(=O)O` (stereo partly drawn) [ORN4P1], the IC50 on Lin28_ZKD [1] was 208 ± 27.4 nM.
Still for that read-out and setting: with `CCCC[C@H](NC(=O)[C@H](C)NC(=O)[C@H](CC(C)C)NC(=O)CCCCCNC(=O)[C@@H](N)CSC1CC(=O)N(CCOP(=O)(S)OC[C@H]2O[C@@H](n3cnc4c(N)ncnc43)[C@H](OC)[C@@H]2OP(=O)(S)OC[C@H]2O[C@@H](n3cnc4c(=O)[nH]c(N)nc43)[C@H](OC)[C@@H]2OP(=O)(S)OC[C@H]2O[C@@H](n3cnc4c(=O)[nH]c(N)nc43)[C@H](OC)[C@@H]2OP(=O)(S)OC[C@H]2O[C@@H](n3cnc4c(N)ncnc43)[C@H](OC)[C@@H]2OP(=O)(S)OC[C@H]2O[C@@H](n3cnc4c(=O)[nH]c(N)nc43)[C@H](OC)[C@@H]2OP(=O)(S)OC[C@H]2O[C@@H](n3cnc4c(N)ncnc43)[C@H](OC)[C@@H]2OP(=O)(S)OC[C@H]2O[C@@H](n3ccc(=O)[nH]c3=O)[C@H](OC)[C@@H]2O)C1=O)C(=O)N[C@@H](Cc1ccc(O)cc1)C(=O)N[C@H](C(=O)O)[C@@H](C)CC` (stereo partly drawn) [ORN4Pcon] the figure was 206 ± 2.1 nM.
On to `CC[C@H](C)[C@H](NC(=O)[C@H](Cc1ccc(O)cc1)NC(=O)[C@@H]1C[C@@H](O)CN1C(=O)[C@H](C)NC(=O)[C@H](CC(C)C)NC(=O)CCCCCNC(=O)[C@@H](N)CSC1CC(=O)N(CCOP(=O)(S)OC[C@H]2O[C@@H](n3cc(C)c(=O)[nH]c3=O)[C@H](OCCOC)[C@@H]2OP(=O)(S)OC[C@H]2O[C@@H](n3cc(C)c(=O)[nH]c3=O)[C@H](OCCOC)[C@@H]2OP(=O)(S)OC[C@H]2O[C@@H](n3cc(C)c(=O)[nH]c3=O)[C@H](OCCOC)[C@@H]2OP(=O)(S)OC[C@H]2O[C@@H](n3cnc4c(N)ncnc43)[C@H](OCCOC)[C@@H]2OP(=O)(S)OC[C@H]2O[C@@H](n3cc(C)c(=O)[nH]c3=O)[C@H](OCCOC)[C@@H]2OP(=O)(S)OC[C@H]2O[C@@H](n3cc(C)c(=O)[nH]c3=O)[C@H](OCCOC)[C@@H]2OP(=O)(S)OC[C@H]2O[C@@H](n3cnc4c(=O)[nH]c(N)nc43)[C@H](OCCOC)[C@@H]2O)C1=O)C(=O)O` (stereo partly drawn) [ORN5P1], for which the “activity in FP competition assay (in words)” value at Lin28_ZKD [1] (displacement of let7FAM from Lin28_ZKD) was “weak effect on Lin28_ZKD”. The “Lin28A suppression (in words)” value in the data set on Lin28A was “inactive”.
For the compound “ORN7: AGGAGAUAACU, PS-MOE (all 2'-MOE, all phosphorothioate, methylation of C and T or U not given here; further chemistry not fully specified)”, the IC50 with Lin28_ZKD [1] (Table 1, 40 nM Lin28_ZKD, 10 nM FAM-preE-let-7, 10 mM HEPES, 150 mM NaCl, pH 7.4, 30 min at 25 °C, 384-well, repeated at least three times, read-out: IC 50 determined by fluorescence polarization) turned out to be 162 ± 38 nM. The “NMR chemical shift perturbation / signal change of Lin28_ZKD” value with Lin28_ZKD [2] (1H-15N HSQC, 1:1 ratio) is “some of the NMR signals broadened or disappeared”. The “precipitation with Lin28_ZKD in NMR titration” value with Lin28_ZKD [2] (at higher concentrations) is given as “precipitation at higher concentrations was also observed”. Besides, in the data set with K562 cells, the intracellular localization result is “visible in the cytosol and the nuclei of cells”. Besides, the relative uptake entry in the data set on K562 cells (compared with ORN3) was “higher than that of ORN3”.
